Measured values as given in patent US20260021061A1, “ARIADNE AND ANALOGS FOR THE TREATMENT OF NEUROLOGICAL AND NEUROMUSCLAR DISORDERS” (priority 2022, published 2026).

Tests used:
[1] = target: T1, Nicotinic Acetylcholine alpha4beta2, Cytisine (Homo sapiens, UniProt P17787+P43681); assay: SafetyScreen44 299031; assay type: binding; details: 10 μM; [3H]Cytisine; recombinant
T1 construct: purchased Eurofins-Panlabs (contract screen SafetyScreen44) assay ID 299031
Experimental: (§1) A broad screen of 44 molecular targets (SafetyScreen44, Eurofins-Panlabs) for Ariadne were performed, which includes G protein-coupled receptors, steroid nuclear receptors, ion channels, neurotransmitter transporters, and metabolic and signaling enzymes. Only two molecular targets, 5-HT2A and 5-HT2B receptors, emerged above the positive hit threshold, defined as 50% displacement of standard radioligands by 10 uM concentration of Ariadne (FIG. 1b, and Table 1).
(§2) For species, “H”=human, “R”=rat. Test compound screened at all targets at concentration of 10 μM.

5-HT2B = 5-HT2B (Homo sapiens, UniProt P41595); assay: G protein (Gq) dissociation BRET assay; details: for Emax: read-out: Emax, agonist activity
5-HT2B, sequence (P41595 whole entry): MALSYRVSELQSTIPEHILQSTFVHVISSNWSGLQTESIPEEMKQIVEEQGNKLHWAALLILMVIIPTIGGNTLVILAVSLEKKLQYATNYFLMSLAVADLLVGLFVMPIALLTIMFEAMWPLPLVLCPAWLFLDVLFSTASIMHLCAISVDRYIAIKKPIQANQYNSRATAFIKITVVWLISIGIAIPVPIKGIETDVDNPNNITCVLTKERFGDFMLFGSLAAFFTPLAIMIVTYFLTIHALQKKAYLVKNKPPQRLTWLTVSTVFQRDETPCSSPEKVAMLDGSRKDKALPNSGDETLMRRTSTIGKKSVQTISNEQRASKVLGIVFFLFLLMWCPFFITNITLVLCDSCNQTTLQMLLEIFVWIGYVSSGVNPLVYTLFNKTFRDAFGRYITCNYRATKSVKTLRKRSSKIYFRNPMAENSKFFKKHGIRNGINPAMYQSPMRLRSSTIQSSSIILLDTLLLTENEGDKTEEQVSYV
Experimental: (§3) All BRET assays were conducted using BRET2 in HEK293T cells (ATCC CRL-11268; mycoplasma-free), which were subcultured in high-glucose DMEM (VWR) supplemented with 10% FBS (Life Technologies).
(§4) Constructs in G protein-dissociation BRET assays were derived from the codon-optimized Tango pcDNA3.1 library (Addgene) with V2tail/TEV/tTA encoding regions deleted to yield “de-Tango” constructs. […] All Gα-Rluc8, Beta, and GFP2-γ constructs were derived from the TRUPATH pcDNA5/FRT/TO library (Addgene).
(§5) Approximately 48 hours before assays, cells were transfected using a reverse transfection method and plated in 1% dFBS at an approximate density of 15,000 cells per well into poly-L-lysine-coated 384-well white assay plates (Grenier Bio-One). For G protein-dissociation assays, cells were transfected in a 1:1:1:1 ratio of receptor: Gα-Rluc8: Beta: GFP2-γ constructs. […] All transfections were prepared in Opti-MEM (Invitrogen) and used a 3:1 ratio of TransIT-2020 (Mirus) uL:ug total DNA.
(§6) On the day of the assay, plates were decanted and 20 uL of drug buffer per well (1×HBSS, 20 mM HEPES, pH 7.4) was added using a Multidrop (ThermoFisher Scientific), and plates were allowed to equilibrate at 37° C. in a humidified incubator before receiving drug stimulation. Drug dilutions of all compounds were performed in McCorvy buffer (1×HBSS, 20 mM HEPES, pH 7.4, supplemented with 0.3% BSA fatty acid free (GoldBio), and 0.03% ascorbic acid). […] Next, plates were incubated at 37° C. in a humidified incubator for 60 minutes or specified time point. Before reading, addition of coelenterazine 400a (5 uM final concentration; Nanolight Technology) was performed by the [sequence]. Immediately after, plates were read at 400 nm Rluc and fluorescent GFP2 emission at 510 nm for BRET2 at 0.8 second per well using a PheraStarFSX (BMB Lab Tech).
(§7) The BRET ratios of 510/400 luminescence were calculated per well and were plotted as a function of drug concentration using Graphpad Prism 5 or 9 (Graphpad Software Inc., San Diego, CA). Data were normalized to % positive control stimulation and analyzed using nonlinear regression “log(agonist) vs. response” to yield Emax and EC50 parameter estimates.

hDAT = hDAT (Homo sapiens, UniProt Q01959); assay: DAT fluorescence uptake inhibition; assay type: cell-based
hDAT, sequence (Q01959 whole entry): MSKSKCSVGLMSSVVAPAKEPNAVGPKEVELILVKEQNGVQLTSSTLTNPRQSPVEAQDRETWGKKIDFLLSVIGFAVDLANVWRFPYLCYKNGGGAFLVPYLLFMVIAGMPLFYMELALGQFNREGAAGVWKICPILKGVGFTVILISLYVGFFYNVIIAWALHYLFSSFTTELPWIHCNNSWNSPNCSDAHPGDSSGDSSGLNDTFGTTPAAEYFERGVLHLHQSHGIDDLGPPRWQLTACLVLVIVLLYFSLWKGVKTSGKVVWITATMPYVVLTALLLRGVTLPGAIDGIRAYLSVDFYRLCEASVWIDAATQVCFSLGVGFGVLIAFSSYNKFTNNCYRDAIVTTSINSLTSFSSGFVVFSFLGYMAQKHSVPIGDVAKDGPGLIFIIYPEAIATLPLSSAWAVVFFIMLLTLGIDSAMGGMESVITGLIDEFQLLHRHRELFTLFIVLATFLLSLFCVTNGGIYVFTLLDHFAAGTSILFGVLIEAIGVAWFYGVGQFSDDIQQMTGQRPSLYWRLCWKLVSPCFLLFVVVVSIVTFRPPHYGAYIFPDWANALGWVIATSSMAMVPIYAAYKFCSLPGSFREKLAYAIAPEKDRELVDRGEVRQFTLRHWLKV

rat smooth muscle = details: compared to serotonin and (R)-DOM; cited from earlier work
humans = details: in vivo; cited from earlier work
[2] = target: T2, Potassium Channel hERG, [3H]Dofetilide (Homo sapiens, UniProt Q12809); assay: SafetyScreen44 265910; assay type: binding; details: 10 μM, recombinant
T2 construct: purchased Eurofins-Panlabs (contract screen SafetyScreen44) assay ID 265910
Experimental: as §1, §2

5-HT2C receptor [3] = target: T3, 5-HT2C receptor (Homo sapiens, UniProt P28335); assay: G protein (Gq) dissociation BRET assay; details: for Emax: read-out: Emax, agonist activity
T3 sequence (P28335 33-458): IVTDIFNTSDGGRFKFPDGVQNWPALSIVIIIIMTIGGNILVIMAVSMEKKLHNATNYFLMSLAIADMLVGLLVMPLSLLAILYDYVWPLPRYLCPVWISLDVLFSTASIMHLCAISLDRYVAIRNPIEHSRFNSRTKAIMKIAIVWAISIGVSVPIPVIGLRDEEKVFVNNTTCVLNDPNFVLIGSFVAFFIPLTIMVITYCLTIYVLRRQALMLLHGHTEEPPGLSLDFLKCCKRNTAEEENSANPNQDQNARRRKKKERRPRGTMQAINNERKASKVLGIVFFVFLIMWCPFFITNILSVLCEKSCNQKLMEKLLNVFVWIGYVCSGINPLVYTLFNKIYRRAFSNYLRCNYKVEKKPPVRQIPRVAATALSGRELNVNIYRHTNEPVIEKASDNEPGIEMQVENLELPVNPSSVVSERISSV
Experimental: as §3, §4, §5, §6, §7

Adrenergic alpha1A = target: T4, Adrenergic alpha1A (Homo sapiens, UniProt P35348); assay: SafetyScreen44 203110; assay type: binding; details: 10 μM; [3H]Prazosin; recombinant
T4 construct: Eurofins-Panlabs (contract screen) 203110
T4 sequence (P35348 whole entry): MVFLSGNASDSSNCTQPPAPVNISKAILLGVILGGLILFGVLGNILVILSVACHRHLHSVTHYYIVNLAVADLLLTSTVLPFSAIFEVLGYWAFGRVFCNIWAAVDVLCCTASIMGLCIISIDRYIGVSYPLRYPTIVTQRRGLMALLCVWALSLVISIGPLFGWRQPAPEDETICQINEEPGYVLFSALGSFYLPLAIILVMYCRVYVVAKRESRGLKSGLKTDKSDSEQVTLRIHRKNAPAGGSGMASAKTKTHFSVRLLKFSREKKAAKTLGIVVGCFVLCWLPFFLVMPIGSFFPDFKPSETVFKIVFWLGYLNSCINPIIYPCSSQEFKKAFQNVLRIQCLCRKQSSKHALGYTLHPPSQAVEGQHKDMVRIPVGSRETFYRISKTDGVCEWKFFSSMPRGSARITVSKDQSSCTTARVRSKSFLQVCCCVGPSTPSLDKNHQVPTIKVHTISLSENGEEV
Experimental: as §1, §2

Muscarinic M1 = target: T5, Muscarinic M1 (Homo sapiens, UniProt P11229); assay: SafetyScreen44 252610; assay type: binding; details: 10 μM; [3H]N-Methylscopolamine; recombinant
T5 construct: purchased Eurofins-Panlabs (contract screen SafetyScreen44) assay ID 252610
T5 sequence (P11229 whole entry): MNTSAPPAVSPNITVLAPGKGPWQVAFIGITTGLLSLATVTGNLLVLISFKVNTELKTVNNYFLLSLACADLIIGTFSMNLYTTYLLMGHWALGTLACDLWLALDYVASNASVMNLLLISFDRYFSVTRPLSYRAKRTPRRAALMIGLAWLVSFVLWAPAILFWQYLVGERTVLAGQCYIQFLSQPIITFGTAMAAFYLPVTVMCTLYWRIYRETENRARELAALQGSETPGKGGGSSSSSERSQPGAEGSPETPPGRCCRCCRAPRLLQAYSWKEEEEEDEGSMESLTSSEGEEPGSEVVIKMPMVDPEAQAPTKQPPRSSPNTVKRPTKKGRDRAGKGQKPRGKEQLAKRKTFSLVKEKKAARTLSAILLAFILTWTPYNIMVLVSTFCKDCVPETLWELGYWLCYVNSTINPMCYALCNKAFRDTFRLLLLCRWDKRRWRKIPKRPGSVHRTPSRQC
Experimental: as §1, §2

[4] = target: T6, Serotonin (5-Hydroxytryptamine) 5-HT3 (Homo sapiens, UniProt P46098); assay: SafetyScreen44 271910; assay type: binding; details: 10 μM; [3H]GR-65630; recombinant
T6 construct: purchased Eurofins-Panlabs (contract screen SafetyScreen44) assay ID 271910
T6 sequence (P46098 24-478): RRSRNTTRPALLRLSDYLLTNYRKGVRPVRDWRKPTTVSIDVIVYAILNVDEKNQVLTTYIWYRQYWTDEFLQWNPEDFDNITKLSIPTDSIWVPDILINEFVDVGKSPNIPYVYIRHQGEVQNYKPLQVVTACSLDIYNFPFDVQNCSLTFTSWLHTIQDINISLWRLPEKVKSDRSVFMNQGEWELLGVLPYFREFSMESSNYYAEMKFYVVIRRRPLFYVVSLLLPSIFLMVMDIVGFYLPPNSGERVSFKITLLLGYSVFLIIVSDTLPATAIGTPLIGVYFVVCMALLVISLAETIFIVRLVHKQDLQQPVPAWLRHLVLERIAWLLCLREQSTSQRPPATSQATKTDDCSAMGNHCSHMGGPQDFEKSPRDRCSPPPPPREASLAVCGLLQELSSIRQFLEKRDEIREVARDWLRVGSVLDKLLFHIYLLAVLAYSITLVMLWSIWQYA
Experimental: as §1, §2

5-HT7a receptor = 5-HT7a receptor (Homo sapiens, UniProt P34969); assay: 5-HTome G protein activation BRET assay; details: for agonist activity: 5-HTome screen
5-HT7a receptor, sequence (P34969 1-445 isoform P34969-2): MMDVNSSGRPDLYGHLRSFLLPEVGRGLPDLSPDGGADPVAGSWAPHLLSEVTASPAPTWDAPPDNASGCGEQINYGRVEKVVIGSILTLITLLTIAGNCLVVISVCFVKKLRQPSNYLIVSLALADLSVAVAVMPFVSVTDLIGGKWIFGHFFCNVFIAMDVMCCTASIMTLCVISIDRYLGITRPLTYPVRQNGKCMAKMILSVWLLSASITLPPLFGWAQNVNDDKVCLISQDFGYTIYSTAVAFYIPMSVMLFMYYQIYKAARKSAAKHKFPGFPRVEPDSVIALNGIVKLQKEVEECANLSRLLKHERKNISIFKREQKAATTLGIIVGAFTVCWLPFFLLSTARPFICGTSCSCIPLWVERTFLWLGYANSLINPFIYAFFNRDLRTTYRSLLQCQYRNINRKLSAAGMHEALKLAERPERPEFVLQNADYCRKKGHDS
Experimental: as §3, §4, §5
(§8) On the day of the assay, plates were decanted and 20 uL of drug buffer per well (1×HBSS, 20 mM HEPES, pH 7.4) was added using a Multidrop (ThermoFisher Scientific), and plates were allowed to equilibrate at 37° C. in a humidified incubator before receiving drug stimulation. Drug dilutions of all compounds were performed in McCorvy buffer (1×HBSS, 20 mM HEPES, pH 7.4, supplemented with 0.3% BSA fatty acid free (GoldBio), and 0.03% ascorbic acid). […] Before reading, addition of coelenterazine 400a (5 uM final concentration; Nanolight Technology) was performed by the [sequence]. Immediately after, plates were read at 400 nm Rluc and fluorescent GFP2 emission at 510 nm for BRET2 at 0.8 second per well using a PheraStarFSX (BMB Lab Tech).
as §7

Glutamate, NMDA, Agonism = assay: SafetyScreen44 232810; assay type: binding, rat; details: 10 μM; [3H]CGP-39653; cerebral cortex
Experimental: as §1, §2

Opiate μ (OP3, MOP) = target: T7, Opiate μ (OP3, MOP) (Homo sapiens, UniProt P35372); assay: SafetyScreen44 260410; assay type: binding; details: 10 μM; [3H]Diprenorphine; recombinant
T7 construct: purchased Eurofins-Panlabs (contract screen SafetyScreen44) assay ID 260410
Experimental: as §1, §2

5-HT5a receptor = 5-HT5a receptor (Homo sapiens, UniProt P47898); assay: 5-HTome G protein activation BRET assay; details: for agonist activity: 5-HTome screen
5-HT5a receptor, sequence (P47898 whole entry): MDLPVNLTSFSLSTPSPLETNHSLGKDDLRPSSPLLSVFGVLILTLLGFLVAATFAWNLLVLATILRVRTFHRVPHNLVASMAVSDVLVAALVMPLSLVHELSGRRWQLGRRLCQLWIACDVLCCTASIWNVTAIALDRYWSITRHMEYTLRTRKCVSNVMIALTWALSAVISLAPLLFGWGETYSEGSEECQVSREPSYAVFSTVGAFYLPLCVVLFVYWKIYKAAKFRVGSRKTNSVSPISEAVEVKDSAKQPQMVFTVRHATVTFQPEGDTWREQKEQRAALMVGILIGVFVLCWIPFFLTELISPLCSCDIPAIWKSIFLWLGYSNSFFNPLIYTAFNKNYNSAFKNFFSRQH
Experimental: as §3, §4, §5, §8, §7

Phosphodiesterase PDE4D2 = target: T8, Phosphodiesterase PDE4D2 (Homo sapiens, UniProt Q08499); assay: SafetyScreen44 154420; assay type: biochemical; details: 10 μM; FAM-cAMP; recombinant
T8 construct: Eurofins-Panlabs (contract screen) 154420
Experimental: as §1, §2

Cyclooxygenase COX-1 = target: T9, Cyclooxygenase COX-1 (Homo sapiens, UniProt P23219); assay: SafetyScreen44 116030; assay type: biochemical; details: 10 μM; Arachidonic acid; recombinant
T9 construct: Eurofins-Panlabs (contract screen) 116030
T9 sequence (P23219 24-599): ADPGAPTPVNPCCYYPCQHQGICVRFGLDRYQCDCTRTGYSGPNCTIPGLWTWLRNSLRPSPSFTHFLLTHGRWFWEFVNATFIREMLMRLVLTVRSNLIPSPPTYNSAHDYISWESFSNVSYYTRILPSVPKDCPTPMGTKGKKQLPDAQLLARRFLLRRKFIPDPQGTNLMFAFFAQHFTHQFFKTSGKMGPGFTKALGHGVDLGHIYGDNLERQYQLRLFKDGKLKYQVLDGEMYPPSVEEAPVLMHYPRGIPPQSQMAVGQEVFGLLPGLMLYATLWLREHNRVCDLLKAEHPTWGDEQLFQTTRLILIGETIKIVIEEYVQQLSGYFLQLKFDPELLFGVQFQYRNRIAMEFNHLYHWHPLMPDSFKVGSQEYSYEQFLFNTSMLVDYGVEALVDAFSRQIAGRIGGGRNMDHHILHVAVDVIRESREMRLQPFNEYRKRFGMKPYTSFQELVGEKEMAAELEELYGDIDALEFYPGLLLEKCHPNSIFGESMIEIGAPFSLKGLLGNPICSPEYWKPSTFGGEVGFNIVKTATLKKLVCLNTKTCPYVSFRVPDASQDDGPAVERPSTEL
Experimental: as §1, §2

Dopamine D2S = target: T10, Dopamine D2S (Homo sapiens, UniProt P14416); assay: SafetyScreen44 219700; assay type: binding; details: 10 μM; [3H]Spiperone; recombinant
T10 construct: Eurofins-Panlabs (contract screen) 219700
T10 sequence (P14416 1-414 isoform P14416-2): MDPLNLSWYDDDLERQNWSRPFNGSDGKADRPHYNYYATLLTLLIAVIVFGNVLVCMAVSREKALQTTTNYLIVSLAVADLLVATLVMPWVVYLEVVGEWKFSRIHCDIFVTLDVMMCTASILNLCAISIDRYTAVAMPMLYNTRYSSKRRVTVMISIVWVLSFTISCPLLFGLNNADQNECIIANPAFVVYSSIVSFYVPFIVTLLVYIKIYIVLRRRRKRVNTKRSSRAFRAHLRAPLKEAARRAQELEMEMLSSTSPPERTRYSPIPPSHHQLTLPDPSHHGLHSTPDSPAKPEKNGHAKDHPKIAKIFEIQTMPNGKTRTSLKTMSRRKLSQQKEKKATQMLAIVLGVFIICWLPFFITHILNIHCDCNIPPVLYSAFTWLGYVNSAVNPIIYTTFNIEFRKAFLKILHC
Experimental: as §1, §2

Dopamine D1 = target: T11, Dopamine D1 (Homo sapiens, UniProt P21728); assay: SafetyScreen44 219500; assay type: binding; details: 10 μM; [3H]SCH-23390; recombinant
T11 construct: Eurofins-Panlabs (contract screen) 219500
Experimental: as §1, §2

[5] = target: T12, Cholinesterase, Acetyl, ACES (Homo sapiens, UniProt P22303); assay: SafetyScreen44 104010; assay type: biochemical; details: 10 μM; substrate Acetylthiocholine; recombinant
T12 construct: Eurofins-Panlabs (contract screen) 104010
Experimental: as §1, §2

5-HT2C receptor [6] = target: T3, 5-HT2C receptor; assay: Calcium flux assay; assay type: cell-based; details: read-out: Emax relative to 5-HT, calcium flux
Experimental: (§9) Therefore, an orthogonal assay measuring calcium flux was also performed for the 5-HT2 receptors (Klein et al., 2020).

5-HT2A = 5-HT2A (Homo sapiens, UniProt P28223); assay: Calcium flux assay; assay type: cell-based
5-HT2A, sequence (P28223 whole entry): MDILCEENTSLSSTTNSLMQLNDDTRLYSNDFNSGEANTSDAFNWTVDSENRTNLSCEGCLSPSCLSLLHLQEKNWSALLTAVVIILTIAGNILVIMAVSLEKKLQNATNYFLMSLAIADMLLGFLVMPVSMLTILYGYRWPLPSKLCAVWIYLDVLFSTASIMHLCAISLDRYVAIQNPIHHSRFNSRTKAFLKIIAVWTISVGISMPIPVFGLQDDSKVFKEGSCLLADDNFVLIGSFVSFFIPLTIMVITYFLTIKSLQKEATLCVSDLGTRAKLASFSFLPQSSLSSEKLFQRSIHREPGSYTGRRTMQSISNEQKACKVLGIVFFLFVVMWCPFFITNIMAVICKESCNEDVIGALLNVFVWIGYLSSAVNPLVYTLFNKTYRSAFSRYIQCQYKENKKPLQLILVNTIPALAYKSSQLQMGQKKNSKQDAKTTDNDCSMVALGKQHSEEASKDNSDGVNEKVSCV
Experimental: as §9

patients = details: cited from earlier work
rats = details: 10 mg/kg, s.c. or i.p.; absence of stimulant-like effects; cited from earlier work
[7] = EC50, agonist activity, 5-HTome screen
[8] = EC50, Gq dissociation, Gq dissociation BRET

With `CCC(N)Cc1cc(OC)c(C)cc1OC` (racemic) [Compound 32, 1-(2,5-dimethoxy-4-methylphenyl)butan-2-amine] the “% Response” value [1] was −31%, the EC50 (5-HT2B; [7]) was under 1 µM and the Emax (5-HT2B) was over 70%. For the same compound, the IC50 (hDAT) was over 50 µM, the serotonergic-like effect (rat smooth muscle) was “weak serotonergic-like effect” and the “hallucinogenic effects in humans” value (humans) was “lack the hallucinogenic effects”. The “% Response” value [2] was 18%, the EC50 (5-HT2C receptor [3]; [7]) was under 1 µM and the Emax (5-HT2C receptor [3]) was over 70%. For the same compound, the “% Response” value (Adrenergic alpha1A) was 24%, the “% Response” value (Muscarinic M1) was −4% and the “% Response” value [4] was −13%. For the same compound, the EC50 (5-HT7a receptor) was over 10 µM, the agonist activity (5-HT7a receptor) was “Little to no agonist activity” and the “% Response” value (Glutamate, NMDA, Agonism) was −5%. For the same compound, the “% Response” value (Opiate μ (OP3, MOP)) was −11%, the EC50 (5-HT5a receptor) was over 10 µM and the agonist activity (5-HT5a receptor) was “Little to no agonist activity”. The “% Response” value (Phosphodiesterase PDE4D2) was −2%, the “% Response” value (Cyclooxygenase COX-1) was −31% and the “% Response” value (Dopamine D2S) was 1%. For the same compound, the “% Response” value (Dopamine D1) was 7% and the “% Response” value [5] was 12%.

Work on `CC[C@@H](N)Cc1cc(OC)c(C)cc1OC` [(R)-Ariadne] yielded an EC50 (5-HT2B; [8]) of 0.739 µM, an EC50 (5-HT2B; [7]) of under 1 µM and an Emax (5-HT2B) of over 70%. It also gave an Emax (5-HT2C receptor [6]) of 60%, an EC50 (5-HT2A) of 0.03 µM and an Emax (5-HT2A; read-out: Emax relative to 5-HT, calcium flux) of 96%. It also gave an EC50 (5-HT2C receptor [3]; [8]) of 0.249 µM, an EC50 (5-HT2C receptor [3]; [7]) of under 1 µM and an Emax (5-HT2C receptor [3]) of over 70%. The agonist activity (5-HT7a receptor) was “Little to no agonist activity”, the “symptoms in subjects with Parkinson's disease” value (patients; 100 mg per day) was “nearly complete remission of symptoms” and the “psychotic symptoms in schizophrenia and bipolar disorder” value (patients; 50-100 mg per day) was “rapid remission of psychotic symptoms”. For the same compound, the hallucinogenic effects (patients; up to and beyond 100 mg per day, including patients with psychosis) was “lack of hallucinogenic effects”, the agonist activity (5-HT5a receptor) was “Little to no agonist activity” and the avoidance behavior (rats) was “improved avoidance behavior”.
